Measurements reported in ChEMBL document CHEMBL1201862, “PubChem BioAssay data set” (2004).
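Dose response: 5 concentrations. Exposure: 48 h. Format: 96-well plates. Endpoint: linear interpolation; highest concentration if not reached. GI50 marks 50% less growth.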 Active and inactive are the calls of the source. Rule as the data show it: active = GI50 up to about 1.1 µM and inactive = higher.

Tests used:
Experiment in all cases: DTP human tumour cell line panel, 48 h
[1] = system: NCI-H522
[2] = system: BT-549
[3] = system: HL-60
[4] = system: HCT-116
[5] = system: Malme-3M
[6] = system: U-251
[7] = system: SNB-75
[8] = system: MDA-MB-231
[9] = system: SK-MEL-2
[10] = system: SN12C
[11] = system: A498
[12] = system: UO-31
[13] = system: OVCAR-3
[14] = system: RXF 393
[15] = system: CCRF-CEM
[16] = system: K562
[17] = system: NCI-H460
[18] = system: SNB-19
[19] = system: UACC-257
[20] = system: RPMI-8226
[21] = system: NCI-H23
[22] = system: SR
[23] = system: OVCAR-5
[24] = system: DU-145
[25] = system: SF-539
[26] = system: SK-OV-3
[27] = system: HCC 2998
[28] = system: UACC-62
[29] = system: MCF7
[30] = system: EKVX
[31] = system: SK-MEL-28
[32] = system: MDA-N
[33] = system: KM12
[34] = system: Hs-578T
[35] = system: HOP-62
[36] = system: HCT-15
[37] = system: ACHN
[38] = system: MDA-MB-435
[39] = system: MOLT-4
[40] = system: LOX IMVI
[41] = system: M14
[42] = system: T47D
[43] = system: HT-29
[44] = system: TK-10
[45] = system: NCI-H226
[46] = system: PC-3
[47] = system: COLO 205
[48] = system: SF-268
[49] = system: OVCAR-8
[50] = system: NCI/ADR-RES
[51] = system: HOP-92
[52] = system: A549
[53] = system: SF-295
[54] = system: SW-620
[55] = system: OVCAR-4
[56] = system: IGROV-1
[57] = system: CAKI-1
[58] = system: 786-0
[59] = system: SK-MEL-5

Which results are given for `CCCOP(=O)(OCCC)OC(C(F)(F)F)C(F)(F)F`?
GI50 [1]: > 100 µM (inactive); GI50 [2]: > 100 µM (inactive); GI50 [3]: > 100 µM (inactive); GI50 [4]: > 100 µM (inactive); GI50 [5]: > 100 µM (inactive); GI50 [6]: > 100 µM (inactive); GI50 [7]: > 100 µM (inactive); GI50 [8]: > 100 µM (inactive); GI50 [9]: > 100 µM (inactive); GI50 [10]: > 100 µM (inactive); GI50 [11]: > 100 µM (inactive); GI50 [12]: > 100 µM (inactive); GI50 [13]: > 100 µM (inactive); GI50 [14]: 44.9 µM (inactive); GI50 [15]: > 100 µM (inactive); GI50 [16]: > 100 µM (inactive); GI50 [17]: > 100 µM (inactive); GI50 [18]: > 100 µM (inactive); GI50 [19]: > 100 µM (inactive); GI50 [20]: > 100 µM (inactive); GI50 [21]: > 100 µM (inactive); GI50 [22]: > 100 µM (inactive); GI50 [23]: > 100 µM (inactive); GI50 [24]: > 100 µM (inactive); GI50 [25]: > 100 µM (inactive); GI50 [26]: > 100 µM (inactive); GI50 [27]: > 100 µM (inactive); GI50 [28]: > 100 µM (inactive); GI50 [29]: > 100 µM (inactive); GI50 [30]: > 100 µM (inactive); GI50 [31]: > 100 µM (inactive); GI50 [32]: > 100 µM (inactive); GI50 [33]: > 100 µM (inactive); GI50 [34]: > 100 µM (inactive); GI50 [35]: > 100 µM (inactive); GI50 [36]: > 100 µM; GI50 [37]: > 100 µM (inactive); GI50 [38]: > 100 µM (inactive); GI50 [39]: > 100 µM (inactive); GI50 [40]: > 100 µM (inactive); GI50 [41]: > 100 µM (inactive); GI50 [42]: > 100 µM (inactive); GI50 [43]: > 100 µM (inactive); GI50 [44]: > 100 µM (inactive); GI50 [45]: > 100 µM (inactive)

`Cn1c(=O)c2c(no[n+]2[O-])n(C)c1=O` was tested. Which GI50 [1] did it give?
Its GI50 is 16.1 µM (inactive).

And the GI50 [46]?
Its GI50 is > 100 µM (inactive).

What about the GI50 [2] of the same compound?
Its GI50 is 21.7 µM (inactive).

And the GI50 [4]?
The GI50 was > 100 µM (inactive).

What about the GI50 [5] of the same compound?
Its GI50 is 18.5 µM (inactive).

What about the GI50 [6] of the same compound?
The GI50 was 22.6 µM (inactive).

What about the GI50 [7] of the same compound?
The GI50 was 49.7 µM (inactive).

And the GI50 [8]?
Its GI50 is 21.7 µM (inactive).

What about the GI50 [9] of the same compound?
The GI50 was 45 µM (inactive).

What about the GI50 [10] of the same compound?
Its GI50 is 39.3 µM (inactive).

And the GI50 [11]?
The GI50 was 18.2 µM (inactive).

What about the GI50 [12] of the same compound?
Its GI50 is 31 µM (inactive).

What about the GI50 [13] of the same compound?
The GI50 was > 100 µM (inactive).

What about the GI50 [14] of the same compound?
Its GI50 is 27.7 µM (inactive).

And the GI50 [15]?
Its GI50 is > 100 µM (inactive).

And the GI50 [47]?
Its GI50 is 23 µM (inactive).

What about the GI50 [48] of the same compound?
Its GI50 is 25.6 µM (inactive).

What about the GI50 [16] of the same compound?
The GI50 was > 100 µM (inactive).

What about the GI50 [17] of the same compound?
Its GI50 is > 100 µM (inactive).

What about the GI50 [18] of the same compound?
The GI50 was 22.3 µM (inactive).

What about the GI50 [19] of the same compound?
The GI50 was 36.9 µM (inactive).

And the GI50 [49]?
The GI50 was 19.1 µM (inactive).

And the GI50 [20]?
The GI50 was > 100 µM (inactive).

And the GI50 [21]?
The GI50 was 22.4 µM (inactive).

What about the GI50 [22] of the same compound?
Its GI50 is > 100 µM (inactive).

What about the GI50 [50] of the same compound?
Its GI50 is 22.9 µM (inactive).

And the GI50 [51]?
Its GI50 is 19.1 µM (inactive).

What about the GI50 [23] of the same compound?
Its GI50 is > 100 µM (inactive).

And the GI50 [52]?
The GI50 was > 100 µM (inactive).

What about the GI50 [53] of the same compound?
The GI50 was 52.4 µM (inactive).

What about the GI50 [25] of the same compound?
The GI50 was 63.2 µM (inactive).

What about the GI50 [26] of the same compound?
Its GI50 is 53.5 µM (inactive).

What about the GI50 [54] of the same compound?
Its GI50 is 25.4 µM (inactive).

And the GI50 [27]?
Its GI50 is > 100 µM (inactive).

And the GI50 [28]?
Its GI50 is 19.5 µM (inactive).

What about the GI50 [29] of the same compound?
The GI50 was > 100 µM (inactive).

What about the GI50 [30] of the same compound?
Its GI50 is 28.4 µM (inactive).

And the GI50 [32]?
Its GI50 is 22.4 µM (inactive).

And the GI50 [55]?
Its GI50 is 59.8 µM (inactive).

And the GI50 [56]?
Its GI50 is 22.2 µM (inactive).

What about the GI50 [57] of the same compound?
Its GI50 is 19.3 µM (inactive).

What about the GI50 [33] of the same compound?
The GI50 was 52 µM (inactive).

What about the GI50 [34] of the same compound?
The GI50 was 22.6 µM (inactive).

What about the GI50 [35] of the same compound?
Its GI50 is 18.4 µM (inactive).

What about the GI50 [58] of the same compound?
The GI50 was 23.8 µM (inactive).

What about the GI50 [36] of the same compound?
The GI50 was > 100 µM.

What about the GI50 [37] of the same compound?
Its GI50 is > 100 µM (inactive).

What about the GI50 [38] of the same compound?
The GI50 was 20 µM (inactive).

And the GI50 [39]?
Its GI50 is > 100 µM (inactive).

And the GI50 [40]?
Its GI50 is > 100 µM (inactive).

What about the GI50 [41] of the same compound?
The GI50 was > 100 µM (inactive).

What about the GI50 [42] of the same compound?
Its GI50 is > 100 µM (inactive).

What about the GI50 [43] of the same compound?
Its GI50 is 31.2 µM (inactive).

What about the GI50 [44] of the same compound?
Its GI50 is 18.9 µM (inactive).

And the GI50 [59]?
The GI50 was 42.6 µM (inactive).

What about the GI50 [45] of the same compound?
The GI50 was 18.2 µM (inactive).

What does the source list for `CCCCn1c(-c2ccc([N+](=O)[O-])cc2)cs/c1=N/N=C1\C(=O)Nc2ccc(Br)cc21`?
GI50 [1]: 14.2 µM (inactive); GI50 [2]: 22.6 µM (inactive); GI50 [3]: 16.9 µM (inactive); GI50 [4]: 12.9 µM (inactive); GI50 [5]: 28.3 µM (inactive); GI50 [6]: 10.4 µM (inactive); GI50 [7]: 20.3 µM (inactive); GI50 [8]: 15.7 µM (inactive); GI50 [10]: 3.78 µM (inactive); GI50 [11]: 17.4 µM (inactive); GI50 [12]: 18.6 µM (inactive); GI50 [13]: 15.5 µM (inactive); GI50 [14]: 8 µM (inactive); GI50 [15]: 17.8 µM (inactive); GI50 [47]: 13.6 µM (inactive); GI50 [48]: 29.9 µM (inactive); GI50 [16]: 15.7 µM (inactive); GI50 [17]: 14.6 µM (inactive); GI50 [18]: 21.8 µM (inactive); GI50 [19]: 18.2 µM (inactive); GI50 [49]: 30 µM (inactive); GI50 [21]: 16.6 µM (inactive); GI50 [50]: 17.1 µM (inactive); GI50 [51]: 26 µM (inactive); GI50 [23]: 30.5 µM (inactive); GI50 [52]: 15.9 µM (inactive); GI50 [53]: 22.9 µM (inactive); GI50 [24]: 13.8 µM (inactive); GI50 [25]: 14 µM (inactive); GI50 [26]: 19.5 µM (inactive); GI50 [54]: 39.6 µM (inactive); GI50 [27]: 17.9 µM (inactive); GI50 [28]: 19.6 µM (inactive); GI50 [29]: 3.28 µM (inactive); GI50 [30]: 24.7 µM (inactive); GI50 [31]: 29.4 µM (inactive); GI50 [32]: 16.2 µM (inactive); GI50 [55]: 12.6 µM (inactive); GI50 [56]: 19.1 µM (inactive); GI50 [57]: 21.4 µM (inactive); GI50 [33]: 14.6 µM (inactive); GI50 [34]: 43.2 µM (inactive); GI50 [35]: 15.7 µM (inactive); GI50 [58]: 11.8 µM (inactive); GI50 [36]: 21.9 µM; GI50 [37]: 12.9 µM (inactive); GI50 [38]: 14.1 µM (inactive); GI50 [39]: 7.43 µM (inactive); GI50 [40]: 18.9 µM (inactive); GI50 [41]: 12.1 µM (inactive); GI50 [42]: 7.11 µM (inactive); GI50 [43]: 13.3 µM (inactive); GI50 [44]: 12.3 µM (inactive); GI50 [59]: 14.1 µM (inactive); GI50 [45]: 21.1 µM (inactive)
